According to patent publication US5462861A, “Method for improving enzyme activities with noble gases” (American Air Liquide, Chicago Research Center, priority 1993, dated 1995):
Entries after “also recorded” stand apart in the source; their conditions may differ.

How the values were obtained:
α-D-glucosidase = α-D-glucosidase activity under gas; assay type: biochemical; details: FIG. 31
Description: Solution preparation: Optimized w/v solutions are prepared by diluting the enzyme (units/ml) and the substrate (μg/ml) in appropriate buffer (optimized pH and molarity for enzymes). The solutions are used for gas experiments at once to avoid loss of activity. Various enzyme and substrate concentrations and inhibitors may be employed. Physical parameters are varied as required. […] Gas-tight serum vials are filled with enzyme and solvent. Sufficient gas is consecutively bubbled in the cuvets and serum vials, with a 1-hr wait between injections to maximize equilibration of gas. All syringes and dead spaces are purged before filling with the appropriate gas. The amount of gas used has been measured sufficient to saturate the solution required. Spectrophotometric time-drive, reaction rate, and kinetic analyses: cuvets and serum vials are saturated with gas 40 minutes before the run. A gas-filled syringe is used to retrieve 0.5 ml of enzyme solution to avoid air contact. […] Changes in the rate or final equilibrium of the reaction versus ambient air are recorded. Comparison is also made with added oxygen, and with deoxygenation. Some samples are also prepared under pressure.

particulate sialidase = details: Sandhoff et al, FEBS Letters 1976; cited from earlier work
[1] = Schreiner; independent of oxygen partial pressure; cited from earlier work
Tyrosinase [2] = test: Tyrosinase-L-tyrosine reaction, solution saturated with gas; assay type: biochemical, Mushroom
Description: (§1) Solution preparation: Optimized w/v solutions are prepared by diluting the enzyme (units/ml) and the substrate (μg/ml) in appropriate buffer (optimized pH and molarity for enzymes). The solutions are used for gas experiments at once to avoid loss of activity. Various enzyme and substrate concentrations and inhibitors may be employed. Physical parameters are varied as required.
(§2) Preparation of samples: Cuvets are filled with 2 ml of substrate solution by means of a gas-tight syringe. Gas-tight serum vials are filled with enzyme and solvent. Sufficient gas is consecutively bubbled in the cuvets and serum vials, with a 1-hr wait between injections to maximize equilibration of gas. All syringes and dead spaces are purged before filling with the appropriate gas. The amount of gas used has been measured sufficient to saturate the solution required.
(§3) Spectrophotometric time-drive, reaction rate, and kinetic analyses: cuvets and serum vials are saturated with gas 40 minutes before the run. A gas-filled syringe is used to retrieve 0.5 ml of enzyme solution to avoid air contact. The 0.5 ml syringe injections of enzyme are made simultaneously to effect a common starting time to for the samples. 7 gases (air, O2, N2, Ne, Ar, Kr, Xe) are run at various temperatures each (from 0° to 60° ). Changes in the rate or final equilibrium of the reaction versus ambient air are recorded. Comparison is also made with added oxygen, and with deoxygenation. Some samples are also prepared under pressure.
1. Solution preparation: 10% w/v solutions are prepared by diluting the enzyme (units/ml) and the substrate (μg/ml) in Sodium Phosphate buffer (pH 6.85, optimized pH for enzymes). The solutions are stored in refrigerator (0°-5° C.) and used for gas experiments within 2 or 3 days to avoid loss of activity.
6. Preparation of run samples: Acrylic cuvets are filled with 2 ml of substrate solution by means of a gas tight syringe. Gastight serum vials are filled with enzyme. 3×10 cc of gas are consecutively bubbled in the cuvets and serum vials, with a […] between injections. This represents a 10× displacement of dead volume while maximizing equilibration of gas. All syringes and dead spaces are purged before filling with the appropriate gas. After the third 10 cc injection, the cuvets and serum vials are left overnight under two 10 cc syringes filled with the appropriate gas in refrigerator at 0°-5° C.
8. Spectrophotometric runs: The cuvets and serum vials are filled with 10 cc of gas 40 min before the run. A gas-filled syringe is used to retrieve 0.5 ml of enzyme solution to avoid air contact. The 0.5 ml syringe injections of enzyme are made simultaneously to effect a common starting time t0 for the samples. Seven gases (air, O2, N2, Ne, Ar, Kr, Xe) are run at five temperatures each (15° C., 20° C., 25° C., 30° C., 35° C.). Changes in the rate or final equilibrium of the reaction versus ambient air are recorded.
The optimal conditions are [E]/[S] (100 μg/ml)/(100 μg/ml), the changes in absorbance being observed at 305 nm.
3×10 cc of gas are bubbled in the silicone-sealed cuvets and serum vials (T-3754, T-7755), with an interval of 20 min (at 0°-5°C.) between each gas injection.
a. The silicone-sealed cuvets are removed from the refrigerator 40 min before the experimental run, filled with 10 cc of gas and left at room temperature (26° C.) under two 10 cc syringes.
The 0.5 ml syringe injections of enzyme are made simultaneously to effect a common starting time t0 for the samples.
200 points, 18 s intervals 1 hr run

[3] = system: phenylalanine ammonia lyase; test: Phenylalanine ammonia lyase activity under gas; assay type: biochemical; details: FIG. 32
Description: as §1, §2, §3
(§4) In a complete experiment, an enzyme at optimal pH and buffering salt concentration is reacted with 5 substrate concentrations in solution with noble gas at 1 atm. […] Controls are also run after evacuation of solution by vacuum. The reaction is monitored colorimetrically in a scanning spectrophotometer in real time, and the signals are treated mathematically to obtain rate and yield differences. Sample numbers are constant and sufficient to ensure significance of results. All parameters are independently controlled and measured, and more complex experiments are occasionally carried out.

Phosphoglucose isomerase = Phosphoglucose isomerase (Homo sapiens, UniProt P06744); test: Phosphoglucose isomerase activity under gas; assay type: biochemical; details: 25° C., FIG. 35
Description: as §1, §2, §3, §4

tyrosinase [4] = test: Oxygen addition experiment, tyrosinase; assay type: biochemical
Description: as §4

glucosidase = system: glucosidase
Description: as §4

In the case of `FS(F)(F)(F)(F)F` [SF6, sulfur hexafluoride, reference compound], the “effect on α-D-glucosidase” value (α-D-glucosidase) is reported as “enhancement”.
In the case of `FC(F)(F)C(Cl)Br` (centres unmarked) [halothane], the “effect on activity of particulate sialidase” value (particulate sialidase) is given as “enhance the activity”.
For `[N-]=[N+]=O` [nitrous oxide], the “inhibition per atmosphere of added gas” value [1] is listed as 1.9 % inhibition per atmosphere and the “effect on activity of particulate sialidase” value (particulate sialidase) is listed as “enhance the activity”.
With `O=O` [oxygen, reference compound] the “effect on tyrosinase-L-tyrosine reaction” value (Tyrosinase [2]; 15° C.) was “approximately the same effect”, the “effect on tyrosinase-L-tyrosine reaction” value (Tyrosinase [2]; 20° C.) was “only a moderate inhibitory effect; also recorded: little effect; also recorded: no enhancing effect; also recorded: does not enhance” and the “effect on tyrosinase-L-tyrosine reaction” value (Tyrosinase [2]; 30° C.) was “inhibitory effect; also recorded: no longer enhances; also recorded: no enhancing effect”. The “temperature dependence of the effect on tyrosinase” value (Tyrosinase [2]; various temperatures (15-35° C.)) was “curves obtained with oxygen instead of air are identical; also recorded: saturates at 30 °C”, the “effect on phenylalanine ammonia-lyase” value [3] was “enhancement” and the “effect on phosphoglucose isomerase” value (Phosphoglucose isomerase) was “inhibition”. The “effect of oxygen on tyrosinase activity” value (tyrosinase [4]; addition of a small amount oxygen) was “enhanced tyrosinase activity slightly”, the “maximum increase in activity of tyrosinase” value (tyrosinase [4]; addition of oxygen to air) was 6% and the “effect of adding oxygen to glucosidase reactions” value (glucosidase) was “no observed effect”. For the same compound, the “effect on α-D-glucosidase” value (α-D-glucosidase) was “enhancement”.
